Source: ChEMBL document CHEMBL5528065, “Structure-Activity Relationship of a Pyrrole Based Series of PfPKG Inhibitors as Anti-Malarials” (J Med Chem, 2024)

What was measured:
[1] = Inhibition of recombinant Plasmodium falciparum PKG using FAM-PKA peptide as fluorescent substrate preincubated for 15 mins followed by substrate addition measured after 1 hr by fluorescence polarization based IMAP assay
Plasmodium falciparum [2] = assay: Antimalarial activity against drug-sensitive Plasmodium falciparum 3D7 infected in human erythrocytes assessed as reduction in parasitemia incubated for 72 hrs by SYBR green I and Mitotracker deep red dye based flow cytometric analysis; type: functional, organism-based
Plasmodium falciparum [3] = assay: Antimalarial activity against Plasmodium falciparum expressing PKG T618Q mutant infected in human erythrocytes assessed as reduction in parasitemia incubated for 72 hrs by SYBR green I and Mitotracker deep red dye based flow cytometric analysis; type: functional, organism-based
Plasmodium berghei = assay: Antimalarial activity against Plasmodium berghei sporozoites expressing Luciferase infected in human HepG2 cells assessed as reduction in parasite growth incubated for 48 hrs by ONE-Glo luciferase assay; type: functional, organism-based
Homo sapiens = organism: Homo sapiens; assay: Inhibition of human PKG using FAM-IP3R peptide as fluorescent substrate at 10 uM preincubated for 15 mins followed by substrate addition measured after 1 hr by fluorescence polarization based IMAP assay relative to control; details: time 75.0 min
[4] = Aqueous solubility of compound in PBS at pH 7.4 incubated for 90 mins by UV spectrophotometric analysis; type: physicochemical
[5] = Half life in CD-1 mouse liver microsomes in presence of NADPH incubated for 60 mins by LC-MS/MS analysis; type: ADME, Microsome
[6] = Intrinsic clearance in CD-1 mouse liver microsomes in presence of NADPH incubated for 60 mins by LC-MS/MS analysis; type: ADME, Microsome; details: read-out: CLH
[7] = Stability in CD-1 mouse liver microsomes assessed as remaining compound in absence of NADPH incubated for 60 mins by LC-MS/MS analysis; type: ADME, Microsome; details: read-out: Stability
[8] = Half life in human liver microsomes in presence of NADPH incubated for 60 mins by LC-MS/MS analysis; type: ADME, Microsome
[9] = Intrinsic clearance in human liver microsomes in presence of NADPH incubated for 60 mins by LC-MS/MS analysis; type: ADME, Microsome; details: read-out: CLH
[10] = Stability in human liver microsomes assessed as remaining compound in absence of NADPH incubated for 60 mins by LC-MS/MS analysis; type: ADME, Microsome; details: read-out: Stability
[11] = Protein binding in C57BL/6 mouse plasma assessed as unbound fraction incubated for 22 hrs by LC-MS/MS analysis; type: ADME, cell-free
[12] = Protein binding in CD-1 mouse liver microsomes assessed as unbound fraction incubated for 17 hrs by LC-MS analysis; type: ADME, Microsome
Cytochrome P450 3A4 = Cytochrome P450 3A4 (Homo sapiens, UniProt P08684); assay: Inhibition of human CYP3A4 expressed in baculovirus infected insect cells using midazolam as substrate incubated for 30 mins in presence of NADPH by UPLC-MS analysis; type: ADME
Cytochrome P450 2D6 = Cytochrome P450 2D6 (Homo sapiens, UniProt P10635); assay: Inhibition of human CYP2D6 expressed in baculovirus infected insect cells using AMMC as substrate incubated for 40 mins in presence of NADPH by UPLC-MS analysis; type: ADME
Cytochrome P450 2C9 = Cytochrome P450 2C9 (Homo sapiens, UniProt P11712); assay: Inhibition of human CYP2C9 expressed in baculovirus infected insect cells using MFC as substrate incubated for 30 mins in presence of NADPH by UPLC-MS analysis; type: ADME
[13] = target: Voltage-gated inwardly rectifying potassium channel KCNH2 (Homo sapiens, UniProt Q12809); assay: Inhibition of hERG expressed in HEK293 cells incubated for 30 mins by FluxOR dye based fluorescence analysis; type: toxicity, cell-based
[14] = Apparent permeability in human Caco-2 cells incubated for 120 mins by LC-MS/MS analysis; type: ADME, cell-based
[15] = Efflux ratio of apparent permeability from basolateral to apical side over apical to basolateral side in human Caco-2 cells incubated for 120 mins by LC-MS/MS analysis; type: ADME, cell-based
[16] = Plasmodium falciparum, 3D7, 72 h
[17] = Plasmodium berghei, HepG2, 48 h

Cytochrome P450 2C9, sequence (P11712 whole entry): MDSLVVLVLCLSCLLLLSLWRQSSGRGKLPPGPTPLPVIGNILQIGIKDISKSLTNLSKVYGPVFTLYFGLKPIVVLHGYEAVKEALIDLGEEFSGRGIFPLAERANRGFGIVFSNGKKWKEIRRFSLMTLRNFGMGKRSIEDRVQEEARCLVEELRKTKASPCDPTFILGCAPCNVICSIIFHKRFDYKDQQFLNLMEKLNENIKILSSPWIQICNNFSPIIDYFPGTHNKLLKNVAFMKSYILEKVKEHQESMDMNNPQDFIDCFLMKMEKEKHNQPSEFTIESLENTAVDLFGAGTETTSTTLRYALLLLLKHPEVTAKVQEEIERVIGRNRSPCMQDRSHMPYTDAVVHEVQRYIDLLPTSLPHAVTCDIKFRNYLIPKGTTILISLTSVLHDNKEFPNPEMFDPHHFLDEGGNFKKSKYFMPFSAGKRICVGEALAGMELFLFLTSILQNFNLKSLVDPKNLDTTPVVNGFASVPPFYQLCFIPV
Cytochrome P450 2D6, sequence (P10635 whole entry): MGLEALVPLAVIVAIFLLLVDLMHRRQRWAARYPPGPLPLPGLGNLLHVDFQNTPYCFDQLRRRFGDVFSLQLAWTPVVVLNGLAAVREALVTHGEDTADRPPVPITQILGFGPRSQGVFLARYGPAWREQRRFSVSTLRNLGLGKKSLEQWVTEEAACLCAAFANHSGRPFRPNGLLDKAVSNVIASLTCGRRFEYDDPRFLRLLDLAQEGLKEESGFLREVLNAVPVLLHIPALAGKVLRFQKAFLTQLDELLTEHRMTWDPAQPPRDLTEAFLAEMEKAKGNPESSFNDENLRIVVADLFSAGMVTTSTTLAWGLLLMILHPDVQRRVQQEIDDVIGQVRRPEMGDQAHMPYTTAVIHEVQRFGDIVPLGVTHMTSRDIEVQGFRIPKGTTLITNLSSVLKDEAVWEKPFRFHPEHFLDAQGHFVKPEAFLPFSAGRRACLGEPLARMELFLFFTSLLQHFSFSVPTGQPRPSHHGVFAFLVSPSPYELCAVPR
Cytochrome P450 3A4, sequence (P08684 whole entry): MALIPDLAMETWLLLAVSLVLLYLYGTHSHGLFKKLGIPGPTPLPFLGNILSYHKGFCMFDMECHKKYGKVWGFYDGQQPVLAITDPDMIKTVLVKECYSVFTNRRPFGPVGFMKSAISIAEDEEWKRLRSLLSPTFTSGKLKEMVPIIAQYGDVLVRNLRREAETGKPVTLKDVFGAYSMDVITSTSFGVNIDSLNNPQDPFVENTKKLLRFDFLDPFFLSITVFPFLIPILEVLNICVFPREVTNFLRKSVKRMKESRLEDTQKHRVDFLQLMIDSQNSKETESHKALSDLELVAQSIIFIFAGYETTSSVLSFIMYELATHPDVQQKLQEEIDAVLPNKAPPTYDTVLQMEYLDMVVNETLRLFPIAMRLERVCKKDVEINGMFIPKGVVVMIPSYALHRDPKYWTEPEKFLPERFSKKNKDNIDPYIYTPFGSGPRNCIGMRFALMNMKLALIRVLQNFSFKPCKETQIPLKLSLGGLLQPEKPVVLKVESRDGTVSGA
Voltage-gated inwardly rectifying potassium channel KCNH2, sequence (Q12809 whole entry): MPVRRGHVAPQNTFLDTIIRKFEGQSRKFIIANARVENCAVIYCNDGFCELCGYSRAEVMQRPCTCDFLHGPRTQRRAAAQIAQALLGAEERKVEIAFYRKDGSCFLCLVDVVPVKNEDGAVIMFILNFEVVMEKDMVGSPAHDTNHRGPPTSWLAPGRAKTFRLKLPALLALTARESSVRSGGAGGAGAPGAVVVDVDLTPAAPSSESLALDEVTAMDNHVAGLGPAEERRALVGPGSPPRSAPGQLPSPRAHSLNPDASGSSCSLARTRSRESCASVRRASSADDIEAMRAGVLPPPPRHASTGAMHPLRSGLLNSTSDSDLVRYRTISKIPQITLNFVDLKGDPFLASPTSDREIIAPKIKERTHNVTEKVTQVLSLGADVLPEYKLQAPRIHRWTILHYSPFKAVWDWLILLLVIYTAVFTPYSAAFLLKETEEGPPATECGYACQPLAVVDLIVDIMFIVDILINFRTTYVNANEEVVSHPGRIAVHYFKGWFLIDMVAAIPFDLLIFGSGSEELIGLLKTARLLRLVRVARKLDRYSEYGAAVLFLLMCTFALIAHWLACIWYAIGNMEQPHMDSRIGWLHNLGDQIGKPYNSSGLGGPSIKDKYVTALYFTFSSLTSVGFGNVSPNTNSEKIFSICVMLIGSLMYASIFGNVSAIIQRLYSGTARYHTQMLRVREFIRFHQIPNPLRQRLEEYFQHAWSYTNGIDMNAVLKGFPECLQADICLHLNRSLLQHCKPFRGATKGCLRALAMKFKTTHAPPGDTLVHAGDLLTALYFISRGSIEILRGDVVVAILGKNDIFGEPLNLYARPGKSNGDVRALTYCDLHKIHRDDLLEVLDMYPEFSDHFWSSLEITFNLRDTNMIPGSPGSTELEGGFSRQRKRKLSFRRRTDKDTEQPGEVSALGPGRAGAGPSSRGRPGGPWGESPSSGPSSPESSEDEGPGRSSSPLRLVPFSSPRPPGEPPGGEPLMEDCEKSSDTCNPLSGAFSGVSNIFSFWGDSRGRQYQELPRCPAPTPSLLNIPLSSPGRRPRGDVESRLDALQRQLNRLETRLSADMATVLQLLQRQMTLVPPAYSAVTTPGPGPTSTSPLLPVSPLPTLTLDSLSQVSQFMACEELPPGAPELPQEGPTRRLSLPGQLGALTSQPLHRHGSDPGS

**Q.** Which IC50 [1] does the source give for `C[C@@H]1CN(C)CC[C@@H]1c1cc(-c2ccncc2)c(-c2ccc(F)cc2)[nH]1.Cl.Cl` here?
**A.** 13 nM

**Q.** What about the pIC50 [1] of the same compound?
**A.** 7.89

**Q.** What about the EC50 (Plasmodium falciparum [2]; [16]) of the same compound?
**A.** 50 nM

**Q.** What about the EC50 (Plasmodium falciparum [3]; Plasmodium falciparum, 72 h) of the same compound?
**A.** 760 nM

**Q.** What about the EC50 (Plasmodium berghei; [17]) of the same compound?
**A.** 70 nM

**Q.** What about the inhibition (Homo sapiens) of the same compound?
**A.** -0.3%

**Q.** What about the solubility at 1.5 h [4] of the same compound?
**A.** 181 µM

**Q.** And the half-life [5]?
**A.** > 60 min

**Q.** And the microsomal CLint [6]?
**A.** < 23 µL/min/mg

**Q.** And the remaining at 1 h [7]?
**A.** 103%

**Q.** And the half-life [8]?
**A.** 35.7 min

**Q.** What about the microsomal CLint [9] of the same compound?
**A.** 38.8 µL/min/mg

**Q.** And the remaining at 1 h [10]?
**A.** 99%

**Q.** What about the fraction unbound at 22 h [11] of the same compound?
**A.** 0.155

**Q.** What about the fraction unbound at 17 h [12] of the same compound?
**A.** 0.502

**Q.** And the IC50 (Cytochrome P450 3A4)?
**A.** > 10000 nM

**Q.** What about the IC50 (Cytochrome P450 2D6) of the same compound?
**A.** > 10000 nM

**Q.** What about the IC50 (Cytochrome P450 2C9) of the same compound?
**A.** > 10000 nM

**Q.** What about the IC50 [13] of the same compound?
**A.** > 10000 nM

**Q.** What about the Papp at 2 h [14] of the same compound?
**A.** 20.1 ×10⁻⁶ cm/s

**Q.** And the efflux ratio at 2 h [15]?
**A.** 1

**Q.** With `CC1CN(C)CC[C@H]1c1cc(-c2ccncc2)c(-c2ccc(F)cc2)[nH]1.Cl.Cl` (single isomer, unassigned) as the compound, how does the IC50 [1] read?
**A.** 14 nM

**Q.** And the pIC50 [1]?
**A.** 7.85

**Q.** What about the EC50 (Plasmodium falciparum [2]) of the same compound?
**A.** 170 nM

**Q.** And the EC50 (Plasmodium falciparum [3])?
**A.** 900 nM

**Q.** And the EC50 (Plasmodium berghei)?
**A.** 350 nM

**Q.** And the inhibition (Homo sapiens)?
**A.** 0.4%

**Q.** And the solubility at 1.5 h [4]?
**A.** 190 µM

**Q.** And the half-life [5]?
**A.** 28.2 min

**Q.** And the microsomal CLint [6]?
**A.** 49.2 µL/min/mg

**Q.** What about the remaining at 1 h [7] of the same compound?
**A.** 104%

**Q.** And the half-life [8]?
**A.** 57.5 min

**Q.** What about the microsomal CLint [9] of the same compound?
**A.** 24.1 µL/min/mg

**Q.** And the remaining at 1 h [10]?
**A.** 101%

**Q.** What about the fraction unbound at 22 h [11] of the same compound?
**A.** 0.115

**Q.** What about the fraction unbound at 17 h [12] of the same compound?
**A.** 0.587

**Q.** And the IC50 (Cytochrome P450 3A4)?
**A.** > 10000 nM

**Q.** What about the IC50 (Cytochrome P450 2D6) of the same compound?
**A.** 5670 nM

**Q.** What about the IC50 (Cytochrome P450 2C9) of the same compound?
**A.** > 10000 nM

**Q.** What about the IC50 [13] of the same compound?
**A.** > 10000 nM

**Q.** And the Papp at 2 h [14]?
**A.** 17 ×10⁻⁶ cm/s

**Q.** And the efflux ratio at 2 h [15]?
**A.** 1.27

**Q.** With `C[C@@H]1CN(C)CCC1c1cc(-c2ccncc2)c(-c2ccc(F)cc2)[nH]1.Cl.Cl` (single isomer, unassigned) as the compound, how does the IC50 [1] read?
**A.** 9 nM

**Q.** And the pIC50 [1]?
**A.** 8.05

**Q.** And the EC50 (Plasmodium falciparum [2])?
**A.** 50 nM

**Q.** What about the EC50 (Plasmodium falciparum [3]) of the same compound?
**A.** 1220 nM

**Q.** What about the EC50 (Plasmodium berghei) of the same compound?
**A.** 60 nM

**Q.** What about the inhibition (Homo sapiens) of the same compound?
**A.** 45%

**Q.** And the solubility at 1.5 h [4]?
**A.** 176 µM

**Q.** What about the half-life [5] of the same compound?
**A.** 31.2 min

**Q.** And the microsomal CLint [6]?
**A.** 44.5 µL/min/mg

**Q.** What about the remaining at 1 h [7] of the same compound?
**A.** 103%

**Q.** And the half-life [8]?
**A.** > 60 min

**Q.** What about the microsomal CLint [9] of the same compound?
**A.** < 23 µL/min/mg

**Q.** What about the remaining at 1 h [10] of the same compound?
**A.** 98%

**Q.** What about the fraction unbound at 22 h [11] of the same compound?
**A.** 0.119

**Q.** What about the fraction unbound at 17 h [12] of the same compound?
**A.** 0.518

**Q.** And the IC50 (Cytochrome P450 3A4)?
**A.** 7480 nM

**Q.** And the IC50 (Cytochrome P450 2D6)?
**A.** 5740 nM

**Q.** What about the IC50 (Cytochrome P450 2C9) of the same compound?
**A.** > 10000 nM

**Q.** What about the IC50 [13] of the same compound?
**A.** > 10000 nM

**Q.** And the Papp at 2 h [14]?
**A.** 22.1 ×10⁻⁶ cm/s

**Q.** What about the efflux ratio at 2 h [15] of the same compound?
**A.** 1.59

**Q.** With `C[C@H]1CN(C)CC[C@@H]1c1cc(-c2ccncc2)c(-c2ccc(F)cc2)[nH]1.Cl.Cl` as the compound, how does the IC50 [1] read?
**A.** 14 nM

**Q.** And the pIC50 [1]?
**A.** 7.87

**Q.** What about the EC50 (Plasmodium falciparum [2]; [16]) of the same compound?
**A.** 80 nM

**Q.** What about the EC50 (Plasmodium falciparum [3]; Plasmodium falciparum, 72 h) of the same compound?
**A.** 780 nM

**Q.** And the EC50 (Plasmodium berghei; [17])?
**A.** 170 nM

**Q.** And the inhibition (Homo sapiens)?
**A.** 30%

**Q.** And the solubility at 1.5 h [4]?
**A.** 187 µM

**Q.** What about the half-life [5] of the same compound?
**A.** > 60 min

**Q.** And the microsomal CLint [6]?
**A.** < 23 µL/min/mg

**Q.** And the remaining at 1 h [7]?
**A.** 99%

**Q.** What about the half-life [8] of the same compound?
**A.** > 60 min

**Q.** And the microsomal CLint [9]?
**A.** < 23 µL/min/mg

**Q.** What about the remaining at 1 h [10] of the same compound?
**A.** 100%

**Q.** What about the fraction unbound at 22 h [11] of the same compound?
**A.** 0.122

**Q.** And the fraction unbound at 17 h [12]?
**A.** 0.63

**Q.** What about the IC50 (Cytochrome P450 3A4) of the same compound?
**A.** 4780 nM

**Q.** What about the IC50 (Cytochrome P450 2D6) of the same compound?
**A.** 6150 nM

**Q.** What about the IC50 (Cytochrome P450 2C9) of the same compound?
**A.** > 10000 nM

**Q.** What about the IC50 [13] of the same compound?
**A.** > 10000 nM

**Q.** What about the Papp at 2 h [14] of the same compound?
**A.** 22.6 ×10⁻⁶ cm/s

**Q.** What about the efflux ratio at 2 h [15] of the same compound?
**A.** 1.52
